In US20130102593A1, “PYRROLIDINE COMPOUNDS WHICH INHIBIT BETA-SECRETASE ACTIVITY AND METHODS OF USE THEREOF” (priority 2008, published 2013):
Read-outs that look alike come from different tables or passages of the source.

Legend:
[1] = Determination of hepatic intrinsic clearance in liver microsomes; format: in vitro ADME; conditions: human liver microsomes, value in text
Method: To 500 μl of 200 mM Na^+K^+ phoshapte buffer (pH 7.4), 100 μl of 1 mM EDTA solution was added followed by 100 μl of 2 mg protein/ml human liver microsomes. A 10 μl aliquot of test compound (20 mM stock in 50% acetonitrile) was diluted further with 40 μl of H2O (total assay volume 750 μl. Assay mixture is incubated for 5 minutes at 37° C. The assay was initiated by addition of 250 μl of 4 mM NADPH solution. Incubation was continued at 37° C. Separate reaction mixtures were prepared for 0, 5, 10, 20, and 30 min durations. Individual reactions were halted by addition of 150 μl of 100% acetonitrile. Internal standard (10 μl of 100 ng/ml diazepam solution) was added. Concentration of the test compound in each separate reaction was measured using LC/MS/MS and a standard curve for the test compound according to standard procedures.
The hepatic intrinsic clearance in liver microsome was determined by the following procedure described by Davies and Morris (Davies, B. and Morris, T. (19930) Physiological parameters in laboratory animals and humans. Pharm Res. 10:1093-1095) detailing the relationship of in vitro clearance to physiological parameters in animals and human subjects. […]
where T is time (in minutes), from the relationship of relative amount vs. time. Alternatively, k1 was determined from a transform of the equation, where […]

Aβ production = assay: Cellular Aβ IC50 determination (memapsin 2 activity in a cellular assay of Aβ production); format: cell-based, Chinese hamster; conditions: Cricetulus griseus, read-out: M2 IC50
Method: The potency of compounds against memapsin 2 activity was determined in a cellular assay of Aβ production. […] Chinese hamster ovary cells that over-express human APP695 with the London and Swedish mutations were seeded in multi-well plates at 10% confluency. Compounds are dissolved in DMSO to concentrations near 1 mM, and diluted into culture media to a final concentration near 4 μM (final 0.4% DMSO). Compounds were diluted serially and applied to cells in multi-well plates 48 h after seeding. Incubation was continued in 5% CO2 at 37° C. for 24 h. Aliquots were removed and assayed for […] content using a sandwich ELISA (BioSource International). Amount of Aβ40 over the range of concentration of compounds, relative to control incubations, were fit to a 4-parameter IC50 model.

[2] = Chinese hamster ovary cells over-expressing human APP695 with London and Swedish mutations, 24 h, Aβ40 sandwich ELISA

| SMILES | hepatic intrinsic clearance in liver microsomes (HLM CL) ([1]; listed as N-(1R,2S)-1-((2R,4R)-4-(benzyloxy)pyrrolidin-2-yl)-1-hydroxy-3-phenylpropan-2-y) | hepatic intrinsic clearance in liver microsomes (HLM CL) ([1]; listed as N-((1R,2S)-1-(2R,4R)-4-(benzyloxy)pyrrolidin-2-yl)-1-hydroxy-3-phenylpropan-2-yl) | IC50 (Aβ production; CHO cells over-expressing human APP695, Aβ40 ELISA) | IC50 (Aβ production; [2]) |
| --- | --- | --- | --- | --- |
| Cc1coc([C@H]2CCCN2C(=O)c2cccc(C(=O)N[C@@H](Cc3ccccc3)[C@H](O)[C@H]3C[C@@H](OCc4ccccc4)CN3)c2)n1 [1-18, N-((1R,2S)-1-((2R,4R)-4-(benzyloxy)pyrrolidin-2-yl)-1-hydroxy-3-phenylpropan-2-yl)-3-((R)-2-(4-methyloxazol-2-yl)pyrrolidine-1-carbonyl)benzamide] | approximately 337 mL/min/kg | 337 mL/min/kg | 291 nM | < 500 nM |
| C=C(C)c1cccc(CNC[C@@H](O)[C@H](Cc2ccccc2)NC(=O)c2cccc(C(=O)N3CCC[C@@H]3c3nc(C)co3)c2)c1 [2-6, N-((2S,3R)-3-hydroxy-1-phenyl-4-(3-(prop-1-en-2-yl)benzylamino)butan-2-yl)-3-((R)-2-(4-methyloxazol-2-yl)pyrrolidine-1-carbonyl)benzamide, reference compound] |  |  |  | < 500 nM |
| Cc1coc([C@H]2CCCN2C(=O)c2cc(CF)cc(C(=O)N[C@@H](Cc3ccccc3)[C@H](O)CNCc3cccc(C(C)(C)C)c3)c2)n1 [2-7, N-((2S,3R)-4-(3-tert-butylbenzylamino)-3-hydroxy-1-phenylbutan-2-yl)-3-(fluoromethyl)-5-((R)-2-(4-methyloxazol-2-yl)pyrrolidine-1-carbonyl)benzamide, reference compound] |  |  |  | < 500 nM |

Continued, values first:

| hepatic intrinsic clearance in liver microsomes (HLM CL) ([1]; listed as N-(1R,2S)-1-((2R,4R)-4-(benzyloxy)pyrrolidin-2-yl)-1-hydroxy-3-phenylpropan-2-y) | hepatic intrinsic clearance in liver microsomes (HLM CL) ([1]; listed as N-((1R,2S)-1-(2R,4R)-4-(benzyloxy)pyrrolidin-2-yl)-1-hydroxy-3-phenylpropan-2-yl) | IC50 (Aβ production; CHO cells over-expressing human APP695, Aβ40 ELISA) | IC50 (Aβ production; [2]) | SMILES |
| --- | --- | --- | --- | --- |
|  |  |  | < 500 nM | Cc1cc(C(=O)N[C@@H](Cc2ccccc2)[C@H](O)CNCc2cncc(C(C)C)c2)cc(C(=O)N2CCC[C@@H]2c2nc(C)cs2)c1 [2-8, N-((2S,3R)-3-hydroxy-4-((5-isopropylpyridin-3-yl)methylamino)-1-phenylbutan-2-yl)-3-methyl-5-((R)-2-(4-methylthiazol-2-yl)pyrrolidine-1-carbonyl)benzamide, reference compound] |
|  |  |  | < 500 nM | Cc1csc(CN(C(=O)c2cccc(C(=O)N[C@@H](Cc3ccccc3)[C@H](O)CNCc3cccc(C(F)(F)F)c3)c2)C2CC2)n1 [2-9, N1-cyclopropyl-N3-((2S,3R)-3-hydroxy-1-phenyl-4-(3-(trifluoromethyl)benzylamino)butan-2-yl)-N1-((4-methylthiazol-2-yl)methyl)isophthalamide, reference compound] |
|  |  |  | < 500 nM | Cc1csc([C@H]2CCCN2C(=O)c2cccc(C(=O)N[C@@H](Cc3ccccc3)[C@H](O)CNCc3cccc(C(C)(C)C)c3)c2)n1 [2-10, N-((2S,3R)-4-(3-tert-butylbenzylamino)-3-hydroxy-1-phenylbutan-2-yl)-3-((R)-2-(4-methylthiazol-2-yl)pyrrolidine-1-carbonyl)benzamide, reference compound] |
